Series [1] deals with isolated osteoclasts. In words: functional responses of isolated osteoclasts (motility, cytosolic calcium, retraction). The format is cell-based. The text has this:
Thus, it appears that osteoclast activity may be restrained via two receptor types; calcitonin acts at both while amylin acts mainly via only one, reducing motility, reducing resorption and probably acting via the second messenger cAMP (Zaidi et. al. 1990, J. Endocrinol 126, 473-481.

Series [2] relates to chick. The following applies: higher doses; cited from earlier work.
Series [3] has as its system rabbit. Particulars: cited from earlier work.
The test system of series [4] is rat osteoclasts. Particulars: Zaidi et al. 1988; cited from earlier work.
Series [5] relates to rat osteoclasts. Put plainly: bone resorption assay (disaggregated rat osteoclasts on human cortical bone slices). The following applies: osteoclasts counted on hormone-treated versus control bone slices.
Protocol: Following incubation (37° C.; 15 minutes), the bone slices were removed, washed gently in Minimal Essential Medium with FCS (10%, v/v) (MEM/FCS) and placed in separate wells (each well contained 5-6 slices and 900 μl MEM/FCS). Either one or two homogeneous suspensions of osteoclasts were used for each experiment. When two suspensions were used, the experiment was divided into two blocks, each of which included all treatments and one suspension. After further incubation (37° C., 10% humidified CO2, 10 minutes), 100 μl of MEM/FCS containing the test substance was added. Finally, bone slices were incubated overnight (37° C., 10% humidified CO2, 18 hours) and quantified in terms of cell numbers and bone resorption. After fixation in glutaraldehyde, cells were stained with toluidine blue and examined by transmitted light microscopy. In order to rule out toxic effects, osteoclasts were counted on three slices for every variable and their numbers were then compared on hormone-treated and control bone slices. […] Osteoclastic excavations, each defined by a continuous border within an area of unresorbed bone were counted. The area of bone surface resorbed was calculated by tracing the outline of the concavities into an image processor (Sight Systems, Newbury, Berks).

Where two headings read alike, the source gives them in different places.

Take calcitonin: in series [1], the cell retraction entry is on record as “caused cell retraction”, the cytosolic calcium entry was “elevated cytosolic calcium” and the osteoclast motility entry was “inhibited osteoclast motility”.
Regarding CGRP, the “effect on plasma calcium” value in series [2] was “parathyroid hormone-like hypercalcemic effect”; in series [3] (rabbit, higher doses) it was “parathyroid hormone-like hypercalcemic effect”; in series [3] (rabbits, lower doses), “hypocalcaemic”. The osteoclastic bone resorption result in series [4] is listed as “inhibits osteoclastic bone resorption”.
With `CC[C@H](C)[C@H](NC(=O)[C@H](C)NC(=O)CNC(=O)[C@H](Cc1ccccc1)NC(=O)[C@H](CC(N)=O)NC(=O)[C@H](CC(N)=O)NC(=O)[C@H](CO)NC(=O)[C@H](CO)NC(=O)[C@H](Cc1c[nH]cn1)NC(=O)[C@@H](NC(=O)[C@H](CC(C)C)NC(=O)[C@H](Cc1ccccc1)NC(=O)[C@H](CC(N)=O)NC(=O)[C@H](C)NC(=O)[C@H](CC(C)C)NC(=O)[C@H](CCCNC(=N)N)NC(=O)[C@H](CCC(N)=O)NC(=O)[C@@H](NC(=O)[C@H](C)NC(=O)[C@@H]1CSSC[C@H](NC(=O)[C@@H](N)CCCCN)C(=O)N[C@@H](CC(N)=O)C(=O)N[C@@H]([C@@H](C)O)C(=O)N[C@@H](C)C(=O)N[C@@H]([C@@H](C)O)C(=O)N1)[C@@H](C)O)C(C)C)C(=O)N[C@@H](CC(C)C)C(=O)N[C@@H](CO)C(=O)N[C@@H](CO)C(=O)N[C@H](C(=O)N[C@@H](CC(N)=O)C(=O)N[C@H](C(=O)NCC(=O)N[C@@H](CO)C(=O)N[C@@H](CC(N)=O)C(=O)N[C@H](C(=O)N[C@@H](Cc1ccc(O)cc1)C(N)=O)[C@@H](C)O)C(C)C)[C@@H](C)O` [amylin], in series [5], the “osteoclast cell number or viability” value is given as “without affecting cell number of viability”.

The values above are taken from patent US5405831A, “Treatment of bone disorders” (Amylin Pharmaceuticals, Inc., priority 1989, dated 1995).
